The values that follow come from patent publication US20080027042A1, “Novel Aminopyridine Derivatives Having Aurora a Selective Inhibitory Action” (priority 2004, published 2008).

One series addresses T1, Aurora A (Homo sapiens, UniProt O14965).
T1 construct: histidine tag (N); made in house; host or cells: Escherichia coli BL21-CodonPlus(DE3)-RIL
T1 sequence (O14965 1-403): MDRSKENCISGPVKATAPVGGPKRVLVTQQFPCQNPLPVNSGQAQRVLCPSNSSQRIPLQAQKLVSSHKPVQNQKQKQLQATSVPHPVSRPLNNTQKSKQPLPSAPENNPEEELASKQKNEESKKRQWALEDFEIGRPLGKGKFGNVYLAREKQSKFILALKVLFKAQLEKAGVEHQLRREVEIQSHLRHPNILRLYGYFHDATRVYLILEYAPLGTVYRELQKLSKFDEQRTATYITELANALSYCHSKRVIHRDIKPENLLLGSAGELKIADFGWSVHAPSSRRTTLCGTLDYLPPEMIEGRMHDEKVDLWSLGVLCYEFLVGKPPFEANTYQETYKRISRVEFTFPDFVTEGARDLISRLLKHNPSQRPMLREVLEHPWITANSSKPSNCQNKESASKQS
Nature of the series: Aurora A inhibitory action (33P-ATP kinase assay, Kemptide substrate). The format is biochemical. The conditions noted are these: 20 μM ATP, 30° C., 20 minutes. The gist of the method:
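His-tagged Aurora A expressed in E. coli, Ni-purified; reaction in 50 mM Tris pH 7.4, 15 mM Mg acetate, 0.2 mM EDTA with 100 μM Kemptide, 20 μM ATP plus [γ-33P]ATP, 20 min at 30 °C. Phosphopeptide captured on P81 filters and counted by scintillation; DMSO control.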

For series [1], the system named is Human cervical cancer cells (HeLa S3). Nature of the series: Cell growth inhibitory effect, WST-8 method. The class given is cell-based. Particulars: 72 h, HeLa S3, three days incubation. The text has this:
Method for Judging the Pharmaceutical Effect Using cells
Fetal calf serum (FCS) was purchased from Moregate Biotech, and DMEM medium was purchased from Invitrogen Corp. WST-8 was purchased from Kishida Chemical Co., Ltd.
(§1) Human cervical cancer cells (HeLa S3) were obtained from the American Type Culture Collection (ATCC).
(§2) c) Method of Judging the Effect
Cells were suspended in a DMEM medium containing 10% FCS, and the cell suspension was dispensed to a 96-well plastic plate at a rate of 750 cells/l 00 microliters per well. The plate was incubated overnight in 5% CO2-95% air at 37° C. A drug was subjected to graded dilution in dimethylsulfoxide and further diluted with a DMEM medium containing 10% FCS. Then, the dilution was dispensed to the plate on which cells had been disseminated, at a rate of 100 microliters per well. The plate was incubated for further three days in 5% CO2-95% air at 37° C. Cell growth after incubation was measured by the WST-8 method (H. Tominaga, et al., Anal. Commun., 36, 47-50 (1999)). Here, the WST-8 method refers to a method in which 20 microliters of a WST-8 reagent solution is added to each well, incubation is conducted at 37° C. for 45 minutes, the plate is stirred, and the amount of formazan produced is measured by a calorimetric method to determine the inhibitory rate of the drug. The concentration for 50% growth inhibition (EC50, IM) of the compound was determined.

A further series addresses T2, Aurora B (Homo sapiens, UniProt Q96GD4).
T2 construct: histidine tag (N); made in house; host or cells: Escherichia coli BL21-CodonPlus(DE3)-RIL
Nature of the series: Aurora B inhibitory action (33P-ATP kinase assay, Kemptide substrate). The conditions noted are these: 100 μM ATP, 30° C., 20 minutes. The format is biochemical. The essentials:
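His-tagged Aurora B expressed in E. coli, reacted with 100 μM Kemptide, 100 μM ATP plus [γ-33P]ATP in Tris pH 7.4, 15 mM Mg acetate, 0.2 mM EDTA, 30 °C, 20 min. Peptide captured on P81 filters for scintillation counting; compounds added from DMSO dilutions.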

In series [2] the test system is Human cervical cancer cells (HeLa S3). Nature of the series: Effect by combined use of drugs in cells (with paclitaxel), WST-8 method. The format is cell-based. Particulars: three days; for inhibition at 0.3 µM: HeLa S3, compound 0.3 μM alone; for inhibition at 1 µM: HeLa S3, compound 1.0 μM alone; for inhibition at 0.1 µM: HeLa S3, compound 0.1 μM alone.
Description: Method for Judging the Effect by Combined Use of Drugs in Cells
Fetal calf serum (FCS) was purchased from Moregate Biotech, DMEM medium from Invitrogen Corp., paclitaxel (tradename: Taxol) from Sigma-Aldrich, Inc., and WST-8 from Kishida Chemical Co., Ltd.
as §1, §2
Cells were suspended in a DMEM medium containing 10% FCS, and the cell suspension was dispensed to two 96-well plastic plates at a rate of 750 cells/100 microliters per well. The plates were incubated overnight in 5% CO2-95% air at 37° C. A drug was subjected to graded dilution in dimethylsulfoxide and flurther diluted with DMSO or with a DMEM medium containing 10% FCS and also containing 2 nM paclitaxel. Then, the dilutions were each dispensed to one of the plates on which cells had been disseminated, at a rate of 100 microliters per well. The final concentration of paclitaxel at this stage was 1 nM. Also, the concentrations in the case of sole administration of the compound according to the invention were 0.03, 0.1, 0.3, 1 and 3 μM. The plates were incubated for further three days in 5% CO2-95% air at 37° C. Cell growth after incubation was measured by the WST-8 method (H. Tominaga, et al., Anal. Commun., 36, 47-50 (1999)). Here, the WST-8 method refers to a method in which 20 microliters of a WST-8 reagent solution is added to each well, incubation is conducted at 37° C. for 45 minutes, the plate is stirred, and the amount of formazan produced is measured by a colorimetric method to determine the inhibitory rate of the drug. The growth inhibitory effects of paclitaxel and of the compound according to the invention were determined, with the value obtained in sole treatment of DMSO being defined as 0%.
For orientation: Formazan colour is commonly taken as a measure of viable cells.

The mark [3] stands for this setting: HeLa S3, compound 0.3 μM + paclitaxel 1 nM.
The mark [4] stands for this setting: Homo sapiens, HeLa S3, 72 h, read-out: Cell growth inhibitory effect by sole administration of the compound of Example (%).
Where [5] appears, read: HeLa S3, compound 1.0 μM + paclitaxel 1 nM.
Where [6] appears, read: HeLa S3, compound 0.1 μM + paclitaxel 1 nM.

T2 sequence (Q96GD4 whole entry): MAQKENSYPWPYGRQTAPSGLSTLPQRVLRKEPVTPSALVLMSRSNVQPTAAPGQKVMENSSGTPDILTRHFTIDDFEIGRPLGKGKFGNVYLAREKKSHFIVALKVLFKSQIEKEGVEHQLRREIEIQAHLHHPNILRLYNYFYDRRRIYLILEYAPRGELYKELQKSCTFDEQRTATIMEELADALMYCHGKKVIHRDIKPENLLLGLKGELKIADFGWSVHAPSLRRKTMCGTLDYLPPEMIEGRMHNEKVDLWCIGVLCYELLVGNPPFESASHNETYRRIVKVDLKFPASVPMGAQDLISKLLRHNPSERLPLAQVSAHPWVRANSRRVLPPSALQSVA

Consider `O=C(c1cccc(C(F)(F)F)c1F)N1CCN(Cc2cncc(Nc3cc[nH]n3)n2)CC1` [Example 44, 6-((4-(2-fluoro-3-(trifluoromethyl)benzoyl)piperazin-1-yl)methyl)-N-1H-pyrazol-3-ylpyrazin-2-amine], for which the melting point was 160 to 163 °C. Also, at Aurora A, the IC50 was determined as 0.89 nM. In series [1], this compound had a half-maximal inhibitory concentration (IC50) of 2400 nM. This compound also yielded a half-maximal inhibitory concentration (IC50) against Aurora B of 1100 nM. In addition, in series [2] (setting [3]), the “Cell growth inhibitory effect by combined administration of paclitaxel and the compound of Example (%)” value (shortened to “Cell growth inhibitory effect … (%)”) is 86.5%. For the same compound, in series [2] (setting [4]), the inhibition at 0.3 µM is 7.1%.

Consider `O=C(c1cccc(Cl)c1F)N1CCN(Cc2cc(-c3ncn[nH]3)cc(Nc3nccs3)n2)CC1` [Example 108, 6-((4-(3-chloro-2-fluorobenzoyl)piperazin-1-yl)methyl)-N-thiazol-2-yl-4-(1H-1,2,4-triazol-5-yl)pyridin-2-amine], for which the values for the IC50 (at Aurora A; in series [1]; at Aurora B) were 0.59 nM, 1200 nM and 800 nM, respectively. The “Cell growth inhibitory effect … (%)” value in series [2] (setting [5]) was found to be 86.4%. Besides, the inhibition at 1 µM in series [2] (setting [4]) was 17.2%.

With `Cc1cc(Nc2cccc(CN3CCN(C(=O)c4cccc(Cl)c4F)CC3)n2)n[nH]1` [Example 25, 6-((4-(3-chloro-2-fluorobenzoyl)piperazin-1-yl)methyl)-N-(5-methyl-1H-pyrazol-3-yl)pyridin-2-amine], the values for the half-inhibitory concentration (IC50) (at Aurora A; in series [1]; against Aurora B) were 1.1 nM, 800 nM and 770 nM, respectively. The “Cell growth inhibitory effect … (%)” value in series [2] (setting [6]) is listed as 65.1%. The inhibition at 0.1 µM in series [2] (setting [4]) amounted to 0%.

With `O=C(O)C(F)(F)F.O=C(c1cccc(Cl)c1Cl)N1CCN(Cc2cccc(Nc3ncns3)n2)CC1` [Example 36, 6-((4-(2,3-dichlorobenzoyl)piperazin-1-yl)methyl)-N-1,2,4-thiadiazol-5-ylpyridin-2-amine trifluoroacetate], the IC50 stood at 2.6 nM on Aurora A, 6800 nM in series [1] and 3200 nM against Aurora B. In addition, the “Cell growth inhibitory effect … (%)” value in series [2] (HeLa S3, compound 3.0 μM + paclitaxel 1 nM) amounted to 83.4%. The inhibition at 3 µM in series [2] (Homo sapiens, HeLa S3, 72 h, HeLa S3, compound 3.0 μM alone, read-out: Cell growth inhibitory effect by sole administration of the compound of Example (%)) amounted to 17.2%.

For the compound `O=C(c1cccs1)N1CCN(Cc2cccc(Nc3ncc(Cl)s3)n2)CC1` [Example 66, 6-((4-(2-thienylcarbonyl)piperazin-1-yl)methyl)-N-(5-chlorothiazol-2-yl)pyridin-2-amine], the concentration for half-maximal inhibition (IC50) against Aurora A amounted to 3.4 nM; in series [1], 2900 nM; against Aurora B it was 250 nM. The “Cell growth inhibitory effect … (%)” value in series [2] (setting [5]) turned out to be 60.9%. Moreover, the inhibition at 1 µM in series [2] (setting [4]) worked out at 7.2%.

In the case of `O=C(c1cccc(C(F)F)c1F)N1CCN(Cc2cccc(Nc3cc[nH]n3)n2)CC1` [Example 22, 6-((4-(3-(difluoromethyl)-2-fluorobenzoyl)piperazin-1-yl)methyl)-N-1H-pyrazol-3-ylpyridin-2-amine], the IC50 against Aurora A amounted to 2.9 nM; in series [1], 3500 nM; on Aurora B it was 1500 nM. In addition, the “Cell growth inhibitory effect … (%)” value in series [2] (setting [5]) came to 80.9%. Besides, in series [2] (setting [4]), the inhibition at 1 µM turned out to be 18.5%.

With `CN(C)C(=O)c1cc(CN2CCN(C(=O)c3cccc(Cl)c3F)CC2)nc(Nc2nccs2)c1.O=C(O)C(F)(F)F` [Example 86, 2-((4-(3-chloro-2-fluorobenzoyl)piperazin-1-yl)methyl)-N,N-dimethyl-6-(thiazol-2-ylamino)isonicotinamide trifluoroacetate], the figures for the concentration for half-maximal inhibition (IC50) (on Aurora A; in series [1]; against Aurora B) were 0.66 nM, 510 nM and 560 nM, respectively. For the same compound, the “Cell growth inhibitory effect … (%)” value in series [2] (HeLa S3, compound 0.03 μM + paclitaxel 1 nM) is on record as 71.6%. In addition, in series [2] (Homo sapiens, HeLa S3, 72 h, HeLa S3, compound 0.03 μM alone, read-out: Cell growth inhibitory effect by sole administration of the compound of Example (%)), the inhibition at 0.03 µM came out at 6.2%.

Take `O=C(c1cccc(Cl)c1F)N1CCN(Cc2cccc(Nc3nccs3)n2)CC1` [Example 5, 6-((4-(3-chloro-2-fluorobenzoyl)piperazin-1-yl)methyl)-N-thiazol-2-ylpyridin-2-amine]: the concentration for half-maximal inhibition (IC50) against Aurora A stood at 0.67 nM; in series [1], 11000 nM; at Aurora B it was 440 nM. For the same compound, the “Cell growth inhibitory effect … (%)” value in series [2] (setting [6]) came out at 72.8%. In addition, the inhibition at 0.1 µM in series [2] (setting [4]) was determined as 0%.

`N#Cc1cccc(C(=O)N2CCN(Cc3cccc(Nc4ncc(Cl)s4)n3)CC2)c1` [Example 71, 6-((4-(3-cyanobenzoyl)piperazin-1-yl)methyl)-N-(5-chlorothiazol-2-yl)pyridin-2-amine]: the results for the half-maximal inhibitory concentration (IC50) (against Aurora A; in series [1]; against Aurora B) were 3 nM, 3000 nM and 370 nM, respectively. Also, the “Cell growth inhibitory effect … (%)” value in series [2] (setting [5]) worked out at 60.7%. In addition, the inhibition at 1 µM in series [2] (setting [4]) turned out to be 13.2%.

For `Cc1cc(Nc2cccc(CN3CCN(C(=O)c4cccc(C(F)(F)F)c4F)CC3)n2)n[nH]1` [Example 29, 6-((4-(2-fluoro-3-(trifluoromethyl)benzoyl)piperazin-1-yl)methyl)-N-(5-methyl-1H-pyrazol-3-yl)pyridin-2-amine], the 50% inhibitory concentration (IC50) on Aurora A is 0.97 nM; in series [1] it was 3300 nM; at Aurora B, 590 nM. The “Cell growth inhibitory effect … (%)” value in series [2] (setting [3]) came to 77.3%. The inhibition at 0.3 µM in series [2] (setting [4]) was determined as 0%.

Regarding `O=C(c1cccc(Cl)c1F)N1CCN(Cc2cncc(Nc3cc[nH]n3)n2)CC1` [Example 50, 6-((4-(3-chloro-2-fluorobenzoyl)piperazin-1-yl)methyl)-N-1H-pyrazol-3-ylpyrazin-2-amine], the 50% inhibitory concentration (IC50) at Aurora A is 2.2 nM; in series [1], 3600 nM; against Aurora B, 5400 nM. Besides, in series [2] (setting [5]), the “Cell growth inhibitory effect … (%)” value is 82.0%. In addition, the inhibition at 1 µM in series [2] (setting [4]) turned out to be 6%.

One may read the IC50 as the concentration that gives 50% inhibition. What is called melting point is the temperature of the solid-liquid transition.
